Test results as given in ChEMBL document CHEMBL1201862, “PubChem BioAssay data set” (2004).
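96-well plates; 48 h exposure; 5 concentrations. Endpoints by linear interpolation between flanking doses. Not reached: highest tested concentration assigned. The concentration for 50% growth inhibition is given as GI50.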 Activity calls are given as the source filed them. Rule as the data show it: active = GI50 up to about 1.1 µM and inactive = higher.

Tests used:
Experiment in all cases: NCI anticancer screen, dose series, 48 h
Malme-3M = tested on: Malme-3M
RXF 393 = tested on: RXF 393
SK-OV-3 = tested on: SK-OV-3
SK-MEL-5 = tested on: SK-MEL-5
M14 = tested on: M14
U-251 = tested on: U-251
SNB-19 = tested on: SNB-19
EKVX = tested on: EKVX
K562 = tested on: K562
HCC 2998 = tested on: HCC 2998
SR = tested on: SR
NCI-H23 = tested on: NCI-H23
786-0 = tested on: 786-0
A549 = tested on: A549
RPMI-8226 = tested on: RPMI-8226
SNB-75 = tested on: SNB-75
SK-MEL-28 = tested on: SK-MEL-28
ACHN = tested on: ACHN
T47D = tested on: T47D
SK-MEL-2 = tested on: SK-MEL-2

SMILES | GI50 (Malme-3M) | GI50 (RXF 393) | GI50 (SK-OV-3) | GI50 (SK-MEL-5) | GI50 (M14) | GI50 (U-251) | GI50 (SNB-19) | GI50 (EKVX) | GI50 (K562) | GI50 (HCC 2998) | GI50 (SR) | GI50 (NCI-H23) | GI50 (786-0) | GI50 (A549) | GI50 (RPMI-8226) | GI50 (SNB-75) | GI50 (SK-MEL-28) | GI50 (ACHN) | GI50 (T47D) | GI50 (SK-MEL-2)
NC(=O)c1nnsc1NC=O | > 100 µM (inactive) | > 100 µM (inactive) | > 100 µM (inactive) | > 100 µM (inactive) | > 100 µM (inactive) | > 100 µM (inactive) | > 100 µM (inactive) | > 100 µM (inactive) | > 100 µM (inactive) | > 100 µM (inactive) | > 100 µM (inactive) | > 100 µM (inactive) | > 100 µM (inactive) | > 100 µM (inactive) | > 100 µM (inactive) | > 100 µM (inactive) | > 100 µM (inactive) | > 100 µM (inactive) | > 100 µM (inactive) | > 100 µM (inactive)
CCOC(=O)C(C(=S)Nc1ccccc1)c1nn2c(=O)cc(C)nc2s1 (stereo not drawn) | 22.9 µM (inactive) | 39.1 µM (inactive) | 23.3 µM (inactive) | 23.1 µM (inactive) | 22.9 µM (inactive) | 26.7 µM (inactive) | 35.6 µM (inactive) | 21.6 µM (inactive) | 20.9 µM (inactive) | 25.1 µM (inactive) | 25.1 µM (inactive) | 35.6 µM (inactive) | 39.8 µM (inactive) | 37.4 µM (inactive) | 26.3 µM (inactive) | 16.9 µM (inactive) | 21.1 µM (inactive) | 20.5 µM (inactive) | 25.5 µM (inactive) | 36.2 µM (inactive)
O=C1CC(NC2CC(=O)c3c(Br)sc(Br)c32)c2c(Br)sc(Br)c21 (stereo not drawn) | 2.29 µM (inactive) | 3.38 µM (inactive) | 17.8 µM (inactive) | 5.96 µM (inactive) | 5.58 µM (inactive) | 1.82 µM (inactive) | 14.9 µM (inactive) | 3 µM (inactive) | 2.55 µM (inactive) | 17 µM (inactive) | 2.28 µM (inactive) | 9.48 µM (inactive) | 1.51 µM (inactive) | 17.5 µM (inactive) | 0.597 µM (active) | 15.7 µM (inactive) | 7.85 µM (inactive) | 2.39 µM (inactive) | 2.46 µM (inactive) | 3.51 µM (inactive)
COc1cc(C2SCC(=O)N2c2ccc(Cl)cc2)cc(I)c1O (stereo not drawn) | > 100 µM (inactive) | > 100 µM (inactive) | > 100 µM (inactive) | 6.52 µM (inactive) | 4.86 µM (inactive) | > 100 µM (inactive) | > 100 µM (inactive) | 8.13 µM (inactive) | 0.501 µM (active) | 65.2 µM (inactive) | 3.53 µM (inactive) | 25.5 µM (inactive) | > 100 µM (inactive) | 46.7 µM (inactive) | 5.85 µM (inactive) | > 100 µM (inactive) | 22 µM (inactive) | – | 5.45 µM (inactive) | 23.9 µM (inactive)
CCOC(=O)/C(=C\NC(=S)Nc1ccc(OCC)cc1)C(=O)c1ccccc1 | > 100 µM (inactive) | > 100 µM (inactive) | > 100 µM (inactive) | > 100 µM (inactive) | > 100 µM (inactive) | > 100 µM (inactive) | > 100 µM (inactive) | > 100 µM (inactive) | > 100 µM (inactive) | > 100 µM (inactive) | > 100 µM (inactive) | > 100 µM (inactive) | > 100 µM (inactive) | > 100 µM (inactive) | > 100 µM (inactive) | 44.2 µM (inactive) | > 100 µM (inactive) | > 100 µM (inactive) | 24 µM (inactive) | > 100 µM (inactive)
O=C(/C(=C\I)c1ccccc1)c1ccccc1 | 7.31 µM (inactive) | 5.35 µM (inactive) | 17.1 µM (inactive) | 17.3 µM (inactive) | 15 µM (inactive) | 2.75 µM (inactive) | 8.95 µM (inactive) | 18.3 µM (inactive) | 3.31 µM (inactive) | 3.94 µM (inactive) | 8.18 µM (inactive) | 9.89 µM (inactive) | 3.52 µM (inactive) | 22.4 µM (inactive) | 2.48 µM (inactive) | 9.42 µM (inactive) | 2.16 µM (inactive) | 13 µM (inactive) | 4.14 µM (inactive) | 7.8 µM (inactive)
C/N=c1\sc2nc(C#N)c(C#N)nc2n1C | 17.6 µM (inactive) | 18.7 µM (inactive) | 28 µM (inactive) | 19.1 µM (inactive) | 23 µM (inactive) | 22.4 µM (inactive) | 28.4 µM (inactive) | 18.5 µM (inactive) | 25.6 µM (inactive) | 25.5 µM (inactive) | > 57 µM (inactive) | 18.3 µM (inactive) | 25.8 µM (inactive) | 18 µM (inactive) | 44.4 µM (inactive) | 19 µM (inactive) | 29.2 µM (inactive) | 22.5 µM (inactive) | 34 µM (inactive) | 16.5 µM (inactive)
Cc1cccc(C(C)C)c1NC(=O)C(=O)CC(=O)c1sc(Nc2ccccc2Cl)nc1C | > 100 µM (inactive) | 40.6 µM (inactive) | 20.7 µM (inactive) | 13.5 µM (inactive) | 19.5 µM (inactive) | 23.1 µM (inactive) | 56.4 µM (inactive) | 52.2 µM (inactive) | > 10 µM (inactive) | 11.6 µM (inactive) | 18.2 µM (inactive) | 35 µM (inactive) | 32.8 µM (inactive) | 31.4 µM (inactive) | 13.3 µM (inactive) | 21.7 µM (inactive) | > 100 µM (inactive) | 51.4 µM (inactive) | 35.8 µM (inactive) | 12.8 µM (inactive)
CCN(C(=O)N[C@@H](CC(C)C)C(=O)NCC(=O)OC)c1ccccc1 | 18 µM (inactive) | 54 µM (inactive) | > 100 µM (inactive) | 75.5 µM (inactive) | > 100 µM (inactive) | > 100 µM (inactive) | > 100 µM (inactive) | > 100 µM (inactive) | 38.4 µM (inactive) | > 100 µM (inactive) | > 100 µM (inactive) | > 100 µM (inactive) | > 100 µM (inactive) | > 100 µM (inactive) | > 100 µM (inactive) | 72.9 µM (inactive) | 38.3 µM (inactive) | > 100 µM (inactive) | > 100 µM (inactive) | 61.4 µM (inactive)
CNc1ccccc1S(=O)(=O)c1ccccc1[N+](=O)[O-] | 99.8 µM (inactive) | > 100 µM (inactive) | > 100 µM (inactive) | 23 µM (inactive) | 52.7 µM (inactive) | 69.7 µM (inactive) | 74 µM (inactive) | > 100 µM (inactive) | 42.6 µM (inactive) | > 100 µM (inactive) | > 100 µM (inactive) | 44.6 µM (inactive) | > 100 µM (inactive) | 77.3 µM (inactive) | > 100 µM (inactive) | 52.4 µM (inactive) | 91 µM (inactive) | 56.6 µM (inactive) | 71.1 µM (inactive) | 88.3 µM (inactive)
COC(=O)C(=O)C(C(=O)C(=O)Nc1ccccc1OC)c1nc2ccc([N+](=O)[O-])cc2nc1O (stereo not drawn) | 83 µM (inactive) | > 100 µM (inactive) | > 100 µM (inactive) | > 100 µM (inactive) | > 100 µM (inactive) | > 100 µM (inactive) | 23.2 µM (inactive) | 45.5 µM (inactive) | > 100 µM (inactive) | > 100 µM (inactive) | > 100 µM (inactive) | – | > 100 µM (inactive) | > 100 µM (inactive) | > 100 µM (inactive) | > 100 µM (inactive) | > 100 µM (inactive) | > 100 µM (inactive) | > 100 µM (inactive) | > 100 µM (inactive)
O=CN(O)CC(=O)O | > 100 µM (inactive) | > 100 µM (inactive) | > 100 µM (inactive) | > 100 µM (inactive) | > 100 µM (inactive) | > 100 µM (inactive) | > 100 µM (inactive) | > 100 µM (inactive) | > 100 µM (inactive) | > 100 µM (inactive) | > 100 µM (inactive) | > 100 µM (inactive) | > 100 µM (inactive) | > 100 µM (inactive) | > 100 µM (inactive) | > 100 µM (inactive) | > 100 µM (inactive) | > 100 µM (inactive) | > 100 µM (inactive) | > 100 µM (inactive)
CC(NNC(=O)c1cc[n+]([BH2-]C#N)cc1)C(F)(F)F (stereo not drawn) | > 100 µM (inactive) | > 100 µM (inactive) | > 100 µM (inactive) | > 100 µM (inactive) | > 100 µM (inactive) | > 100 µM (inactive) | > 100 µM (inactive) | > 100 µM (inactive) | > 100 µM (inactive) | > 100 µM (inactive) | > 100 µM (inactive) | > 100 µM (inactive) | > 100 µM (inactive) | > 100 µM (inactive) | > 100 µM (inactive) | > 100 µM (inactive) | > 100 µM (inactive) | > 100 µM (inactive) | > 100 µM (inactive) | > 100 µM (inactive)
COC(=O)NCCc1n[nH]c2c1C(=O)C=C(Nc1ccccc1OC)C2=O | 14.2 µM (inactive) | 94 µM (inactive) | > 100 µM (inactive) | 13.7 µM (inactive) | 16.2 µM (inactive) | 24.8 µM (inactive) | > 100 µM (inactive) | 32.8 µM (inactive) | 30 µM (inactive) | 17.7 µM (inactive) | 28.5 µM (inactive) | 16 µM (inactive) | 38 µM (inactive) | 41.2 µM (inactive) | 20.5 µM (inactive) | 28.2 µM (inactive) | 38.4 µM (inactive) | 38.6 µM (inactive) | 30.1 µM (inactive) | 22.2 µM (inactive)
